Test results taken from patent US20080009418A1, “Selective Inhibitors” (Alchemia LTD., priority 2004, published 2008).

What was measured:
Human μ-opioid (MOP) = target: T1, Human μ-opioid (MOP) (Homo sapiens, UniProt P35372); assay: Radioligand binding, human μ-opioid (MOP) membranes, FlashPlate, [3H]-Naloxone; conditions: compound at 10 μM; [3H]-Naloxone
T1 construct: purchased Perkin Elmer Biosignal
In short: (§1)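 Cloned human receptor membranes were coated onto FlashPlate wells and incubated with radioligand and compound (added from a 0.5 mM DMSO daughter plate) for 1 hour at room temperature in the dark. Scintillation counting gave percent inhibition, with DMSO defining total and reference ligand defining non-specific binding.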

[1] = target: T2, Human melanin-concentrating hormone (MCH1) (Homo sapiens, UniProt Q99705); assay: Radioligand binding, human melanin-concentrating hormone MCH1 membranes, FlashPlate, [125I]-S36057; conditions: compound at 10 μM; [125I]-S36057
T2 construct: purchased Perkin Elmer Biosignal
T2 sequence (Q99705 whole entry): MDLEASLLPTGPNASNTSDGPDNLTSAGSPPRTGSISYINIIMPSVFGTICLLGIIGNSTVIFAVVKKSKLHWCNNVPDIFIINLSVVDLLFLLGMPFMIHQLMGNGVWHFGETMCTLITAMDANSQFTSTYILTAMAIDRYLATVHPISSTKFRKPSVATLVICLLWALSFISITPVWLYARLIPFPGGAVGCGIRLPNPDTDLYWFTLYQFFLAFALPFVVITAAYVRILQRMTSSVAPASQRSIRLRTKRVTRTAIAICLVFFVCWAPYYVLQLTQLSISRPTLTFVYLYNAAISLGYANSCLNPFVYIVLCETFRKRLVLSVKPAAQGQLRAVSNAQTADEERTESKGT
In short: as §1

Human Melanocortin (MC4) = target: T3, Human Melanocortin (MC4) (Homo sapiens, UniProt P32245); assay: Radioligand binding, human melanocortin MC4 membranes, FlashPlate, [125I]-NDP-αMSH; conditions: compound at 10 μM; [125I]-NDP-αMSH
T3 construct: purchased Perkin Elmer Biosignal
T3 sequence (P32245 whole entry): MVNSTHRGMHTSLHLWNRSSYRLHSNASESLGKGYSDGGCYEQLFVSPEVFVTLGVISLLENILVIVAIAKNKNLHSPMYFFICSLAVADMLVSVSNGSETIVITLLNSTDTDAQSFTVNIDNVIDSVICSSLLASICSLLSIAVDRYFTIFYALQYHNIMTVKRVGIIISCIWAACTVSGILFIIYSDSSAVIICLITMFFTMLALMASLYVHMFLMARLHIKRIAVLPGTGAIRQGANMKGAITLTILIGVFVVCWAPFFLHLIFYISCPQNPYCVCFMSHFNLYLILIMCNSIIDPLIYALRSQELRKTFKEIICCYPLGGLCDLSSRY
In short: as §1

Human δ-opioid (DOP) = target: T4, Human δ-opioid (DOP) (Homo sapiens, UniProt P41143); assay: Radioligand binding, human δ-opioid (DOP) membranes, FlashPlate, [3H]-Bremazocine; conditions: compound at 10 μM; [3H]-Bremazocine
T4 construct: purchased Perkin Elmer Biosignal
T4 sequence (P41143 whole entry): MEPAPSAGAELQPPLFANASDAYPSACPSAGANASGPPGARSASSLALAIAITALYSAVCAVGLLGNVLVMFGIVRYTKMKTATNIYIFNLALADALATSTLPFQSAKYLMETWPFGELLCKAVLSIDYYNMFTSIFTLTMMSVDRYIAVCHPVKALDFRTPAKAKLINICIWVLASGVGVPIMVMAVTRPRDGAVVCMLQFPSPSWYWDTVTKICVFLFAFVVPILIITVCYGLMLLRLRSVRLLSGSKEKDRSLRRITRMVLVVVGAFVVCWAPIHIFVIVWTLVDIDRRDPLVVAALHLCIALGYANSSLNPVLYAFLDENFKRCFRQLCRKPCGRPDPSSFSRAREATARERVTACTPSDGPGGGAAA
In short: as §1

Human κ-Opioid (KOP) = target: T5, Human κ-Opioid (KOP) (Homo sapiens, UniProt P41145); assay: Radioligand binding, human κ-opioid (KOP) membranes, filtration, [3H]-Diprenorphine; conditions: compound at 10 μM; [3H]-Diprenorphine
T5 construct: purchased Perkin Elmer Biosignal
T5 sequence (P41145 whole entry): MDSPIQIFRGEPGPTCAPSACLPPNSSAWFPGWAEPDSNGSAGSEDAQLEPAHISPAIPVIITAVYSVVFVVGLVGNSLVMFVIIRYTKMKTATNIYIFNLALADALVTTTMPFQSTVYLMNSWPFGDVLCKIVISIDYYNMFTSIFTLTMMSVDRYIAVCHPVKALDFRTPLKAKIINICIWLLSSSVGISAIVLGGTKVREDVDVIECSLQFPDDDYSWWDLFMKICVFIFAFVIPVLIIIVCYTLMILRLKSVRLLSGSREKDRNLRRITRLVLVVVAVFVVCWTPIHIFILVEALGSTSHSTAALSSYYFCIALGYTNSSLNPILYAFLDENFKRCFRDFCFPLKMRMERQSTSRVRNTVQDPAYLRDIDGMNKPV
In short: (§2)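 Filtration binding on cloned human receptor membranes (1 Unit/well), [125I]-Substance P for NK1 and [3H]-Diprenorphine for KOP, 1 h at room temperature. Filters PEI-presoaked, washed with cold 50 mM Tris-HCl pH 7.4, counted by scintillation; percent inhibition calculated, reference ligand defining non-specific binding.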

Mouse urotensin (mUR2) = target: T6, Mouse urotensin (mUR2) (Mus musculus, UniProt Q8VIH9); assay: Radioligand binding, mouse urotensin mUR2 membranes, FlashPlate, [125I]-Urotensin II; conditions: compound at 10 μM; [125I]-Urotensin II
T6 construct: purchased Perkin Elmer Biosignal
T6 sequence (Q8VIH9 1-385): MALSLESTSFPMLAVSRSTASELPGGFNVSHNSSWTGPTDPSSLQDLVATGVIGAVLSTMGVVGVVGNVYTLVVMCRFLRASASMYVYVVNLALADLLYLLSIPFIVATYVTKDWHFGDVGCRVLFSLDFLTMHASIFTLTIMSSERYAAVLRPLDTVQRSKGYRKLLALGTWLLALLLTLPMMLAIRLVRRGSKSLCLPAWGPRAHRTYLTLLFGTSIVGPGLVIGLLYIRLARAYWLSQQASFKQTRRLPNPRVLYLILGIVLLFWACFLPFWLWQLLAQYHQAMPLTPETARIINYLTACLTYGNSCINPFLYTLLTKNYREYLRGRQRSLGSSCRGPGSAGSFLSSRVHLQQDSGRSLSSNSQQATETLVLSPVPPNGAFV
In short: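 Cloned mouse urotensin (mUR2) receptor membranes from Perkin Elmer Biosignal were immobilized in FlashPlate microplates using a proprietary coating. Each well got 19.5 μl buffer, then 0.5 μl of DMSO, reference ligand, or compound. Adding 5 μl of [125I]-Urotensin II, diluted to 5× final concentration in binding buffer, started binding. Plates were sealed with TopSeal-A and incubated 1 hour at room temperature in the dark. Wells were counted for 30 seconds each on a TopCount after a 60-second delay, and percentage inhibition was calculated.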

[2] = target: T7, Human neuropeptide Y (NPY-Y1) (Homo sapiens, UniProt P25929); assay: Radioligand binding, human neuropeptide Y NPY-Y1 membranes, FlashPlate, [125I]-PYY; conditions: compound at 10 μM; [125I]-PYY
T7 construct: purchased Perkin Elmer Biosignal
T7 sequence (P25929 1-384): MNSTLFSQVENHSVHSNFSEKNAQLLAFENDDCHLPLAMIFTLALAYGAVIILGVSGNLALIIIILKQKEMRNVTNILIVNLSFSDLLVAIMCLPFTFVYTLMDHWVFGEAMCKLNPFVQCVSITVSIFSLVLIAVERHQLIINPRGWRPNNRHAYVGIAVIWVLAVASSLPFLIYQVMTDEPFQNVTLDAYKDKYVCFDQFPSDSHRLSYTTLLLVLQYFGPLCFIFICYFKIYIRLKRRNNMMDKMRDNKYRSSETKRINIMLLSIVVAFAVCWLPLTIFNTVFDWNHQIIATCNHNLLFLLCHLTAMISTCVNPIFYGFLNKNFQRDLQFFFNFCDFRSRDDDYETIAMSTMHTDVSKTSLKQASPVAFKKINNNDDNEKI
In short: as §1

Human neurokinin (NK1) = target: T8, Human neurokinin (NK1) (Homo sapiens, UniProt P25103); assay: Radioligand binding, human neurokinin NK1 membranes, filtration, [125I]-Substance P; conditions: compound at 10 μM; [125I]-Substance P
T8 construct: purchased Perkin Elmer Biosignal
T8 sequence (P25103 whole entry): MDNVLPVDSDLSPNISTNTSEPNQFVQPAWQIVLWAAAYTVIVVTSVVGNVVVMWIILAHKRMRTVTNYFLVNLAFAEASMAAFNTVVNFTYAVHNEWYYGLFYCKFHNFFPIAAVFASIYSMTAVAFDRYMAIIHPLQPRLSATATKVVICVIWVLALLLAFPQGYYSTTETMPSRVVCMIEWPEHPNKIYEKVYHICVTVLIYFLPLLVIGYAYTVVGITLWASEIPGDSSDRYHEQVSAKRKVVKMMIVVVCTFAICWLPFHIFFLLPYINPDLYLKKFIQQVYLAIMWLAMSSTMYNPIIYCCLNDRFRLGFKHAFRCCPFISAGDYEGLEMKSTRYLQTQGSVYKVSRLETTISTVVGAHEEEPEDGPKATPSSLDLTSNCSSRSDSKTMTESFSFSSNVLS
In short: as §2

Human opioid (ORL1) = target: T9, Human opioid (ORL1) (Homo sapiens, UniProt P41146); assay: Radioligand binding, human opioid ORL1 membranes, FlashPlate, [125I]-Nociceptin; conditions: compound at 10 μM; [125I]-Nociceptin
T9 construct: purchased Perkin Elmer Biosignal
T9 sequence (P41146 whole entry): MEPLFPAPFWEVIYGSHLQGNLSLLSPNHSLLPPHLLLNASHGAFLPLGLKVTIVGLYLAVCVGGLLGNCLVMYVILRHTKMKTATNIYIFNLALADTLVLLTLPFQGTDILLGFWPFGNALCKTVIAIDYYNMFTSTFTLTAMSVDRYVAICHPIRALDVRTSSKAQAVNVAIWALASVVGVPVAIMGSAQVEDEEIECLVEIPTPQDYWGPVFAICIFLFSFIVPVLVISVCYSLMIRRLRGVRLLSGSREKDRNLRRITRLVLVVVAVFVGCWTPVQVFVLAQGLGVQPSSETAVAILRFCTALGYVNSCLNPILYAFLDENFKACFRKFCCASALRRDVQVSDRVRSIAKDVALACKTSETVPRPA
In short: as §1

Human melanocortin (MC5) = target: T10, Human melanocortin (MC5) (Homo sapiens, UniProt P33032); assay: Radioligand binding, human melanocortin MC5 membranes, FlashPlate, [125I]-NDP-αMSH; conditions: compound at 10 μM; [125I]-NDP-αMSH
T10 construct: purchased Perkin Elmer Biosignal
T10 sequence (P33032 whole entry): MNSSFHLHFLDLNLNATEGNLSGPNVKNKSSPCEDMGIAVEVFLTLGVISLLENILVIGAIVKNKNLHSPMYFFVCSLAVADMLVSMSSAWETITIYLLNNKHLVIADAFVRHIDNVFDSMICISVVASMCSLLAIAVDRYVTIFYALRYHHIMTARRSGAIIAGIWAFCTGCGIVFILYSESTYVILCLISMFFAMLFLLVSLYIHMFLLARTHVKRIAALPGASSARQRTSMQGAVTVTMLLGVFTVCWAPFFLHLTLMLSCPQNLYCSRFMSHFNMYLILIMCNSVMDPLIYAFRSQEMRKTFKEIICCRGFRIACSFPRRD
In short: as §1

Human Melanocortin (MC3) = target: T11, Human Melanocortin (MC3) (Homo sapiens, UniProt P41968); assay: Radioligand binding, human melanocortin MC3 membranes, FlashPlate, [125I]-NDP-αMSH; conditions: compound at 10 μM; [125I]-NDP-αMSH
T11 construct: purchased Perkin Elmer Biosignal
T11 sequence (P41968 whole entry): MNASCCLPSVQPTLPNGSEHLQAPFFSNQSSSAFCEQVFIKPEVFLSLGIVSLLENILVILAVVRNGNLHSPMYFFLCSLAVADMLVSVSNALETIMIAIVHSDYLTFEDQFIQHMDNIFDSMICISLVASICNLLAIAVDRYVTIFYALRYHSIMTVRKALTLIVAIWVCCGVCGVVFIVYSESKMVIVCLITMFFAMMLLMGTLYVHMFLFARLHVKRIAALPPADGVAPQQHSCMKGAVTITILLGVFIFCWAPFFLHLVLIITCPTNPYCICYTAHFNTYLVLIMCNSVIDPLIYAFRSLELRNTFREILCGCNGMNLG
In short: as §1

T1 sequence (P35372 whole entry): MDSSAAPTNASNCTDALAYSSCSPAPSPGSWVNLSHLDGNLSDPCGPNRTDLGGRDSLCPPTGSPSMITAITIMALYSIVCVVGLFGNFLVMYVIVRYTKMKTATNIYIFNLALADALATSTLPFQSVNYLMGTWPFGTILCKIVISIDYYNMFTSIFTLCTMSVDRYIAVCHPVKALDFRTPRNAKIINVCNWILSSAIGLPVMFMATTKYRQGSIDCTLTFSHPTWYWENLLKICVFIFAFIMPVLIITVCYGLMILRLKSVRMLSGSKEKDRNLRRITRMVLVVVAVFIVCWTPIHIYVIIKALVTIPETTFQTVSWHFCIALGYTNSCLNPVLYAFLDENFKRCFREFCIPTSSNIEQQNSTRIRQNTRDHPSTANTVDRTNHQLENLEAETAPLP

| Compound | A7: inhibition of radioligand binding, human μ-opioid (MOP) (Human μ-opioid (MOP)) | A6: inhibition of radioligand binding, human melanin-concentrating hormone (MCH1) [1] | A4: inhibition of radioligand binding, human melanocortin (MC4) (Human Melanocortin (MC4)) | A1: inhibition of radioligand binding, human δ-opioid (DOP) (Human δ-opioid (DOP)) | A2: inhibition of radioligand binding, human κ-opioid (KOP) (Human κ-Opioid (KOP)) | A11: inhibition of radioligand binding, mouse urotensin (mUR2) (Mouse urotensin (mUR2)) | A9: inhibition of radioligand binding, human neuropeptide Y (NPY-Y1) [2] | A8: inhibition of radioligand binding, human neurokinin (NK1) (Human neurokinin (NK1)) | A10: inhibition of radioligand binding, human opioid (ORL1) (Human opioid (ORL1)) | A5: inhibition of radioligand binding, human melanocortin (MC5) (Human melanocortin (MC5)) | A3: inhibition of radioligand binding, human melanocortin (MC3) (Human Melanocortin (MC3)) |
| --- | --- | --- | --- | --- | --- | --- | --- | --- | --- | --- | --- |
| CSC1OC(COCc2cccc(N)c2)C(O)C(OCc2ccc(Cl)cc2)C1NC(=O)c1ccccc1 (stereo not shown) [compound 332] | − (“−” indicates less than 50% inhibition at 10 μM) | − (“−” indicates less than 50% inhibition at 10 μM) | − (“−” indicates less than 50% inhibition at 10 μM) | − (“−” indicates less than 50% inhibition at 10 μM) | − (“−” indicates less than 50% inhibition at 10 μM) | − (“−” indicates less than 50% inhibition at 10 μM) | − (“−” indicates less than 50% inhibition at 10 μM) | + (“+” indicates greater than 50% inhibition at 10 μM) | − (“−” indicates less than 50% inhibition at 10 μM) | − (“−” indicates less than 50% inhibition at 10 μM) | − (“−” indicates less than 50% inhibition at 10 μM) |
| CSC1OC(COCc2cccc(N)c2)C(O)C(OCc2ccc(Cl)cc2)C1NC(=O)Cc1ccccc1 (stereo not shown) [compound 333] | − (“−” indicates less than 50% inhibition at 10 μM) | − (“−” indicates less than 50% inhibition at 10 μM) | − (“−” indicates less than 50% inhibition at 10 μM) | − (“−” indicates less than 50% inhibition at 10 μM) | − (“−” indicates less than 50% inhibition at 10 μM) | − (“−” indicates less than 50% inhibition at 10 μM) | − (“−” indicates less than 50% inhibition at 10 μM) | + (“+” indicates greater than 50% inhibition at 10 μM) | − (“−” indicates less than 50% inhibition at 10 μM) | − (“−” indicates less than 50% inhibition at 10 μM) | − (“−” indicates less than 50% inhibition at 10 μM) |
| CSC1OC(COCc2cccc(N)c2)C(O)C(OCc2ccc(Cl)cc2)C1NC(=O)c1c[nH]c2ccccc12 (stereo not shown) [compound 334] | − (“−” indicates less than 50% inhibition at 10 μM) | − (“−” indicates less than 50% inhibition at 10 μM) | − (“−” indicates less than 50% inhibition at 10 μM) | − (“−” indicates less than 50% inhibition at 10 μM) | − (“−” indicates less than 50% inhibition at 10 μM) | − (“−” indicates less than 50% inhibition at 10 μM) | − (“−” indicates less than 50% inhibition at 10 μM) | + (“+” indicates greater than 50% inhibition at 10 μM) | − (“−” indicates less than 50% inhibition at 10 μM) | − (“−” indicates less than 50% inhibition at 10 μM) | − (“−” indicates less than 50% inhibition at 10 μM) |
| COC[C@H]1OC(OCc2ccc3ccccc3c2)[C@H](NC(=O)CCCN)[C@@H](OCc2ccc(-c3ccccc3)cc2)[C@@H]1O (stereo partly shown) [compound 337] | + (“+” indicates greater than 50% inhibition at 10 μM) | + (“+” indicates greater than 50% inhibition at 10 μM) | − (“−” indicates less than 50% inhibition at 10 μM) | − (“−” indicates less than 50% inhibition at 10 μM) | − (“−” indicates less than 50% inhibition at 10 μM) | − (“−” indicates less than 50% inhibition at 10 μM) | − (“−” indicates less than 50% inhibition at 10 μM) | + (“+” indicates greater than 50% inhibition at 10 μM) | − (“−” indicates less than 50% inhibition at 10 μM) | + (“+” indicates greater than 50% inhibition at 10 μM) | − (“−” indicates less than 50% inhibition at 10 μM) |
| COC[C@H]1OC(OCc2ccc3ccccc3c2)[C@H](NC(=O)CCCN)[C@@H](OCc2ccc3ccccc3c2)[C@@H]1O (stereo partly shown) [compound 338] | + (“+” indicates greater than 50% inhibition at 10 μM) | − (“−” indicates less than 50% inhibition at 10 μM) | − (“−” indicates less than 50% inhibition at 10 μM) | − (“−” indicates less than 50% inhibition at 10 μM) | − (“−” indicates less than 50% inhibition at 10 μM) | − (“−” indicates less than 50% inhibition at 10 μM) | − (“−” indicates less than 50% inhibition at 10 μM) | + (“+” indicates greater than 50% inhibition at 10 μM) | − (“−” indicates less than 50% inhibition at 10 μM) | − (“−” indicates less than 50% inhibition at 10 μM) | − (“−” indicates less than 50% inhibition at 10 μM) |
